Laboratory results taken from patent publication US20230348988A1, “DNA Damage Repair Deficit in Cancer Cells” (THE REGENTS OF THE UNIVERSITY OF CALIFORNIA, priority 2020, published 2023).

Tests used:
Assay type in all cases: cell-based
[1] = tested on: SAS cells; test: NANOSTRING DDR gene panel expression in SAS cells; conditions: 24 h, TGFβ plus or minus inhibitor
Experimental: TGFβ regulates expression of DDR genes. To further investigate TGFβ impact on DDR, the expression of DNA repair-associated genes was evaluated using the NANOSTRING™ DDR gene panel. […] According to KEGG pathway analyses, expression of genes implicated in HR and NHEJ was increased by TGFβ and reduced by its inhibition. […] BRCA1 expression was increased by TGFβ and suppressed by LY2157299, as was ABL1 and POLD4. In contrast, TGFβ decreased and LY2157299 inhibition increased expression of LIG1, PARP1, and POLQ, which are key genes involved in alt-EJ.
(§1) Gene expression analyses methods: Total RNA was extracted. Sample RNA (250 ng) was used for the NANOSTRING™ DNA Damage Repair Gene Expression panel, consisting of 180 DDR genes and 12 housekeeping genes for normalization, according to manufacturer's instructions. Hybridization efficiency and background signals were evaluated based on internal positive and negative control probes analyzed using manufacturer's software. Ratio data from 2-3 biological repeats were used for further analysis and graphs.

[2] = tested on: U251 human GBM cell line; test: Quantitative expression assays of alt-EJ genes in U251 cells; conditions: time course, TGFβ signaling blockade with LY2157299
Description: The above observations led to the hypothesis that TGFβ suppression of alt-EJ gene expression is a distinct mechanism that influences differential DNA repair pathway use. To test whether this biology is broadly employed beyond HNSC, glioblastoma (GBM) was considered because high TGFβ ligand and receptor expression correlate with poorer survival, and because TGFβ inhibition enhances radiosensitivity in GBM cell lines and primary tumor explants. First, the U251 human GBM cell line was investigated using the NANOSTRING™ panel. As observed in HNSC SAS cells, TGFβ inhibition increased expression of the key alt-EJ genes, LIG1, PARP1, and POLQ in GBM cells. […] U251 reporters (EJ2GFP) were established to evaluate alt-EJ repair.
as §1

[3] = tested on: SAS cells; test: Pulsed-field gel electrophoresis of residual DSB after irradiation
Experimental: Next it was sought to test whether TGFβ inhibition would increase alt-EJ in the context of NHEJ inhibition. Here pulsed-field gel electrophoresis was used to measure residual DSB levels in SAS cells at various timepoints after irradiation (20 Gy). NHEJ was blocked by treating cells with the DNA-protein kinase inhibitor KU57788 1 hour before irradiation and TGFβ signaling was blocked 24 hours beforehand with LY36494 pretreatment.

Cc1cccc(-c2nn3c(c2-c2ccnc4ccc(C(N)=O)cc24)CCC3)n1 [LY2157299]
BRCA1 expression (as was ABL1 and POLD4) [1]: suppressed | TGFβ induction of CDKNJA [1]: blocked | expression of LIG1, PARP1, and POLQ [1]: increased | expression of LIG1, PARP1, and POLQ [2]: increased

c1ccc(-c2[nH]ncc2-c2ccnc3ccccc23)nc1 [LY36494]
rescue of KU57788-inhibited repair of radiation induced DSB ([3]; LY36494 pretreatment 24 hours beforehand, with KU57788, 20 Gy): partially rescued

O=c1cc(N2CCOCC2)oc2c(-c3cccc4c3sc3ccccc34)cccc12 [KU57788]
repair of radiation induced DSB ([3]; KU57788 1 hour before irradiation (20 Gy)): significantly inhibited
